pIC50, pKi: −log10 of the molar value. Structures can show the parent of a compound that is named as a salt.
How the values were obtained:
ml muscarinic receptor = ml muscarinic receptor (Homo sapiens, UniProt P11229); test: biochemical; type: binding
[1] = system: patients with mild to moderate Alzheimer's disease; conditions: cited from earlier work
[2] = continuous infusion over 2 weeks used because of it; cited from earlier work
[3] = molecular target: T1, M1 acetylcholine receptors (ml receptors in CHO cells) (Homo sapiens, UniProt P11229); test: cell-based; conditions: at 30x Ki (μM), carb = 100%, 1 h, 37° C., read-out: % PI Hydrolysis ml receptors in CHO cells
T1 sequence (P11229 1-460): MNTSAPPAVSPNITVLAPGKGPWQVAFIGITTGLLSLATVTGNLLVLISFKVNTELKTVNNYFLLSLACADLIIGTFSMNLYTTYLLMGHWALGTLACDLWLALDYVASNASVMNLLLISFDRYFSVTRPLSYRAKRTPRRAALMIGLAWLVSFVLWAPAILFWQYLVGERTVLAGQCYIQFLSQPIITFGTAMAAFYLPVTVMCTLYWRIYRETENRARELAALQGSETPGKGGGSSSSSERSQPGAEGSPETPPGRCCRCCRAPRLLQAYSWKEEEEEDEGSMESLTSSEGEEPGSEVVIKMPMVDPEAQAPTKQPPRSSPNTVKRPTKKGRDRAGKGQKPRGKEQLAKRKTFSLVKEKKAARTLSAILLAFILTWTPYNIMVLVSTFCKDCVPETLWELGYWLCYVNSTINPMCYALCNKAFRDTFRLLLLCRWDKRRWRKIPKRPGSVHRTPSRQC

[4] = quaternary ammonium group; background statement; cited from earlier work
ml receptors = conditions: background statement; cited from earlier work
[5] = system: patients with mild to moderate Alzheimer's disease; conditions: especially at the higher doses where it is most effective; cited from earlier work

Cc1nnc(NCCCN2CC3CCC(CC3)C2)n2cccc12 [Example 2, [4-(3-Azabicyclo[3.2.2.]-3-propyl]-(1-methylpyrrolo[1,2-d][1,2,4]triazin-4-yl)aminedihydrochloride]
pKi (ml muscarinic receptor): 5.86

COC(=O)C1=CCCN(C)C1 [arecoline]
improvement in memory [1]: memory improvement in patients with mild to moderate Alzheimer's disease | half-life [2]: short half-life

Cc1nnc(NCCN2CC3CCC(CC3)C2)n2cccc12 [Example 3, [4-(3-Azabicyclo[3.2.2]non-3-yl)ethyl]-(1-methylpyrrolo[1,2-d][1,2,4]triazin-4-yl)amine dihydrochloride]
pKi (ml muscarinic receptor): 5.35 | Emax [3]: 24%

C[N+](C)(C)CCOC(N)=O [carbachol]
ability to enter the CNS [4]: not able to enter the CNS | activation of ml receptors (ml receptors): able to fully activate ml receptors

Nc1c2c(nc3ccccc13)CCCC2 [tacrine]
adverse side effects [5]: adverse side effects especially at the higher doses where it is most effective | improvement in memory [1]: improvement in memory can be shown in patients with mild to moderate Alzheimer's disease

Cc1nnc(NC2CN3CCC2CC3)n2cccc12 (stereo not shown) [Example 4, (1-Azabicyclo[2.2.2]oct-3-yl)-1-methylpyrrolo[1,2-d][1,2,4]triazin-4-ylamine dihydrochloride]
pIC50 (ml muscarinic receptor): 4.70

Cc1nnc(NCCCCN2CC3CCC(CC3)C2)n2cccc12 [Example 1, [4-(3-Azabicyclo[3.2.2]-3-yl)-butyl]-(1-methylpyrrolo[1,2-d][1,2,4]triazin-4-yl)amine dihydrochloride]
pKi (ml muscarinic receptor): 6.51

C[C@@H]1O[C@H](C[N+](C)(C)C)C[C@H]1O [muscarine]
ability to enter the CNS [4]: not able to enter the CNS | activation of ml receptors (ml receptors): able to fully activate ml receptors
